Experimental data: BigSolDB 2.1

Cn1cc([N+](=O)[O-])cn1
solubility (mole fraction)
Conditions | 283.15 K | 288.15 K | 293.15 K | 298.15 K | 303.15 K | 308.15 K | 313.15 K | 318.15 K | 323.15 K
in 1,2-dichlorobenzene | 0.000121 | 0.000147 | 0.000179 | 0.000215 | 0.000266 | 0.000331 | 0.000402 | 0.000492 | 0.000607
in 2-butanone | 0.0093 | 0.0098 | 0.0112 | 0.0139 | 0.0162 | 0.0177 | 0.021 | 0.0242 | 0.0285
in 2-pentanol | 0.000501 | 0.000685 | 0.000871 | 0.0011 | 0.00142 | 0.00175 | 0.00221 | 0.00278 | 0.00348
in acetic acid | 0.000218 | 0.000296 | 0.00039 | 0.000508 | 0.000633 | 0.000776 | 0.000925 | 0.00108 | 0.0012
in acetone | 0.0192 | 0.0239 | 0.0299 | 0.0379 | 0.0485 | 0.0626 | 0.0814 | 0.107 | 0.141
in acetonitrile | 0.00299 | 0.00334 | 0.00423 | 0.00507 | 0.006 | 0.00673 | 0.00756 | 0.00937 | 0.0117
in ethanol | 0.00483 | 0.00511 | 0.00546 | 0.00581 | 0.00633 | 0.00694 | 0.00736 | 0.00785 | 0.00823
in ethyl acetate | 0.0126 | 0.0143 | 0.0162 | 0.0183 | 0.0208 | 0.0235 | 0.0265 | 0.0299 | 0.0337
in isopropanol | 0.00185 | 0.00235 | 0.00292 | 0.00363 | 0.00455 | 0.00566 | 0.00697 | 0.0085 | 0.0102
in methanol | 0.00628 | 0.00699 | 0.00754 | 0.00835 | 0.00923 | 0.0103 | 0.0113 | 0.0126 | 0.014
in methyl acetate | 0.0161 | 0.0185 | 0.022 | 0.0255 | 0.0293 | 0.0351 | 0.0401 | 0.0461 | 0.0519
in n-butanol | 0.00205 | 0.00266 | 0.00323 | 0.00438 | 0.00559 | 0.00709 | 0.0091 | 0.0123 | 0.0154
in n-pentanol | 0.0016 | 0.00182 | 0.0021 | 0.0024 | 0.00278 | 0.00325 | 0.0038 | 0.00469 | 0.0054
in n-propanol | 0.00209 | 0.00229 | 0.00259 | 0.00296 | 0.00331 | 0.00382 | 0.00425 | 0.00487 | 0.00553
in sec-butanol | 0.000727 | 0.000891 | 0.00112 | 0.00151 | 0.00213 | 0.00287 | 0.00382 | 0.00501 | 0.00632
in toluene | 0.00714 | 0.00823 | 0.0095 | 0.0112 | 0.0132 | 0.0156 | 0.0189 | 0.0232 | 0.0276
in water | 7.5e-05 | 9.4e-05 | 0.000113 | 0.000127 | 0.000154 | 0.000181 | 0.000222 | 0.000273 | 0.000331
